Where “and” joins values, the source holds several entries; their conditions need not be identical. Identical values can stand only once.
Experiments:
[1] = test system: malignant skin diseases and solid tumors of other organs; assay: High oral daily doses of 9-cis retinoic acid in malignant skin diseases and solid tumors; assay type: in vivo; conditions: high oral daily doses of up to 300 mg
[2] = test system: non-malignant skin-disorders, such as acne, psoriasis, lamellar ichthyosis, Darier's disease and lichen planus; conditions: low daily doses of 20 to 60 mg
[3] = higher doses; Kurie et al. 1996, Miller et al. 1996; cited from earlier work
[4] = test system: T-helper cell type 1 mediated immune diseases; assay: Low oral daily doses of 9-cis retinoic acid in T-helper cell type 1 mediated immune diseases
[5] = test system: chronic hand eczema; assay: Once daily oral 9-cis retinoic acid in patients with chronic hand eczema refractory to conventional treatment
Experimental: Fifteen patients, eight men and seven women, with chronic hand eczema, refractory to conventional treatment, were treated with 9-cis retinoic acid. Their mean age was 52.3 years, range 21-83. Before the start of 9-cis retinoic acid therapy, their eczema had already lasted for 3 months to 8 years, with a mean of 29 months. […] Therapy consisted in a once daily oral dose of 40 mg 9-cis retinoic acid, given in the form of two soft gelatin capsules containing 20 mg of 9-cis retinoic acid each, with breakfast. 8 patients received in the first week only 20 mg. Mean duration of treatment was 2 months, range 1-3 months. The following lesions and symptoms were recorded on a 0-4 scale (0=none, 1=mild, 2=moderate and 4=severe) and used for evaluating the therapeutic effect: Erythema, papules and vesicles, desquamation, hyperkeratosis, rhagades and pruritus/pain. Side effects, particularly those belonging to the hypervitaminosis A syndrome, were recorded: Headache, dry lips, other mucocutaneous manifestations, muscoskeletal symptoms and laboratory abnormalities.

[6] = 0-4 scale, individual patient, after 40 mg oral daily for 1-3 months
[7] = 0-4 scale, individual patient, before 40 mg oral daily
[8] = for all 15 patients, 40 mg daily oral
[9] = for the 14 responding patients, 40 mg daily oral
[10] = for the 14 responding patients, 40 mg daily oral, listed as 9-cis retinoic acid
[11] = individual patient, 40 mg oral daily for 1-3 months

Structure (SMILES): CC1=C(/C=C/C(C)=C\C=C\C(C)=C\C(=O)O)C(C)(C)CCC1 [9-cis RA, 9-cis retinoic acid]
- Objective tumor regressions [1]: did not lead to major objective tumor regressions
- Side effects [1]: marked to severe side effects
- Therapeutic effect on non-malignant skin-disorders [2]: no therapeutic effect
- Other mucocutaneous manifestations, musculoskeletal or other symptoms [3]: seen with higher doses
- Other toxic signs and symptoms of the hypervitaminosis A syndrome, including the laboratory abnormalities ([4]; daily doses typically 20 to 60 mg, oral): not induced
- Efficacy in treatment of T-helper cell type 1 mediated immune diseases ([4]; low daily doses of 20 to 60 mg): efficacious
- Desquamation, after treatment [5, 6]: 1 (5×) and 0 (6×) and 3/3 and 0/0 (2×) and 0.5
- Erythema, after treatment [5, 6]: 0 (9×) and 0.5 (2×) and 2 and 0/0 and 2/2 and 1
- Hyperkeratosis, after treatment [5, 6]: 0 (8×) and 1/1 (2×) and 1 (2×) and 3/3 and 0.5 (2×)
- Papules, vesicles, after treatment [5, 6]: 0 (4×) and 1 (4×) and 0/0 (6×) and 0.5
- Pruritus (+ pain), after treatment [5, 6]: 0 (6×) and 1 (4×) and 2 (2×) and 7/7 and 0.5 (2×)
- Rhagades, after treatment [5, 6]: 0 (12×) and 2 and 2/2 and 1
- Desquamation, before treatment [5, 7]: 2 (4×) and 3 (4×) and 1 (4×) and 3/3 and 0/0 (2×)
- Erythema, before treatment [5, 7]: 1 (8×) and 2 (4×) and 4 and 0/0 and 2/2
- Hyperkeratosis, before treatment [5, 7]: 4 and 3 and 1/1 (2×) and 2 (8×) and 1 (2×) and 3/3
- Papules, vesicles, before treatment [5, 7]: 3 (3×) and 2 (3×) and 1 (3×) and 0/0 (6×)
- Pruritus (+ pain), before treatment [5, 7]: 2 (3×) and 3 (4×) and 4 (3×) and 5 (4×) and 7/7
- Rhagades, before treatment [5, 7]: 3 (3×) and 2 (5×) and 1 (5×) and 0.5 and 2/2
- Regression of the various lesions and symptoms (erythema, papules and vesicles etc.) ([5]; 40 mg daily oral): 62-100%
- Musculoskeletal or other symptoms ([5]; 40 mg daily, 15 patients): no musculoskeletal or other symptoms were observed
- Overall response of the patients ([5]; all fifteen patients, 40 mg daily): responded markedly
- Reduction of Lesion/symptom score, in %, mean [5, 8]: 76.3%
- Reduction of Lesion/symptom score, in %, range [5, 8]: 0-100%
- Reduction of Lesion/symptom score, in %, mean [5, 9]: mean 81.8%
- Reduction of Lesion/symptom score, in %, range [5, 9]: for the 14 responding patients 53-100, %
- Reduction of Lesion/symptom score, in %, mean [5, 10]: 81.3%
- Reduction of Lesion/symptom score, in %, range [5, 10]: 53-100%
- Response assessed by doctor [5, 11]: very good (6×) and good (7×) and no and moderate
- Response assessed by patient [5, 11]: very good (10×) and good (3×) and moderate and no
- Patients with response good, assessment by doctor, number ([5]; of 15 patients): 7
- Patients with response good, assessment by doctor, percent ([5]; of 15 patients): (47%)
- Patients with response good, assessment by patient, number ([5]; of 15 patients): 3
- Patients with response good, assessment by patient, percent ([5]; of 15 patients): (20%)
- Patients with response moderate, assessment by doctor, number ([5]; of 15 patients): 1
- Patients with response moderate, assessment by doctor, percent ([5]; of 15 patients): (6.5%)
- Patients with response moderate, assessment by patient, number ([5]; of 15 patients): 1
- Patients with response moderate, assessment by patient, percent ([5]; of 15 patients): (6.5%)
- Patients with response no, assessment by doctor, number ([5]; of 15 patients): 1
- Patients with response no, assessment by doctor, percent ([5]; of 15 patients): (6.5%)
- Patients with response no, assessment by patient, number ([5]; of 15 patients): 1
- Patients with response no, assessment by patient, percent ([5]; of 15 patients): (6.5%)
- Patients with response slight, assessment by doctor, number ([5]; of 15 patients): 0
- Patients with response slight, assessment by doctor, percent ([5]; of 15 patients): (0%)
- Patients with response slight, assessment by patient, number ([5]; of 15 patients): 0
- Patients with response slight, assessment by patient, percent ([5]; of 15 patients): (0%)
- Patients with response very good, assessment by doctor, number ([5]; of 15 patients): 6
- Patients with response very good, assessment by doctor, percent ([5]; of 15 patients): (40%)
- Patients with response very good, assessment by patient, number ([5]; of 15 patients): 10
- Patients with response very good, assessment by patient, percent ([5]; of 15 patients): (67%)
- Response considered very good or good (doctor and patient), number of patients ([5]; of 15 patients): 13
- Response considered very good or good (doctor and patient), percent of patients ([5]; of 15 patients): 87%
- Total Score (0-4 scale), after treatment ([5]; sum of lesion/symptom scores, individual patient, after 40 mg oral daily for 1-3 months): 1 (3×) and 2 (4×) and 4.5 (2×) and 3 and 0 (3×) and 8 and 17/17
- Total Score (0-4 scale), before treatment ([5]; sum of lesion/symptom scores, individual patient, before 40 mg oral daily): 15 and 14 (2×) and 11 (4×) and 10 (2×) and 17 and 9 (2×) and 17/17 and 13 and 8
- Reduction of score in % ([5]; total score, individual patient, 40 mg oral daily for 1-3 months): 93% and 86% and 59% and 61% and 74% and 100% (3×) and 53% and 89% (2×) and 0% and 85% and 82% and 75%

From patent publication US6589989B1, “Treatment of cell-mediated immune diseases” (Basilea Pharmaceutica AG, priority 1997, dated 2003)
